Laboratory results from patent US4293489A, “Derivatives of A-30912A nucleus” (Eli Lilly and Company, priority 1980, dated 1981).
Like-named read-outs stand apart in the source and are kept apart here. Starred links: 1 amine or outer side, 2 acyl side, 3 side chain; linkers in the order of their positions; H or OH if unused. Positions of bridges follow the written chain, without caps; N, C: chain ends. Non-standard residues stand in square brackets, D forms with d. Residues, ends and D or L forms follow the SMILES beside them. *: point of attachment. Orn(4R-OH,5R-OH) = O=C([C@H](C[C@@H](O)[C@@H](O)N[*:3])N[*:1])[*:2]; hTyr(3S-OH,4S-OH) = N[C@H](C(=O)O)[C@H](O)[C@@H](O)c1ccc(O)cc1; Benzoyl(4-dodecyloxy) = CCCCCCCCCCCCOc1ccc(C(=O)*)cc1; Benzoyl(4-OC10H21) = CCCCCCCCCCOc1ccc(C(=O)*)cc1; Pro(3S-OH,4S-Me) = C[C@H]1CN[C@H](C(=O)O)[C@H]1O; X2 = CCCCCCCCCCCCCCS(=O)(=O)c1ccc(C(=O)*)cc1; Benzoyl(4-octyl) = CCCCCCCCc1ccc(C(=O)*)cc1; X5 = CCCCCCCCCCCCS(=O)(=O)c1ccc(C(=O)*)cc1; X18 = CCCCCCCCCCCCOc1ccc(CC(=O)*)cc1; X3 = CCCCCCCCCCCCCCSc1ccc(C(=O)*)cc1; X10 = CCCCCCCCCCCCOc1cccc(C(=O)*)c1; X16 = CCCCCCCCOc1ccc(C=CC(=O)*)cc1; X11 = CCCCCCCCOc1ccc(OCC(=O)*)cc1; Hyp = O=C(O)[C@@H]1C[C@@H](O)CN1; X15 = CCCCCCCCOc1cccc(CC(=O)*)c1; X19 = CCCCCCOc1ccc(C=CC(=O)*)cc1; X9 = CCCCCCCCCCOc1cccc(C(=O)*)c1; X12 = CCCCCCOc1ccc(CCC(=O)*)cc1; X13 = CCCCCCCCOc1cccc(C(=O)*)c1; X14 = CCCCCCOc1ccc(C(=O)*)cc1; X17 = CCCCOc1ccc(CCC(=O)*)cc1

Columns and labels:
Candida albicans A-26 [1] = assay: Therapeutic activity against Candida albicans A-26 infection in mice, ED50; format: in vivo; details: Candida albicans, A26, sc, doses 0, 4 and 24 hours post infection, increase in survival time vs control, Reed-Muench, read-out: ED50
Protocol: (§1) The results of in vivo tests to evaluate the effectiveness of the compounds of Examples 3 and 4 against an infection caused by Candida albicans A-26 in mice are given in Table 13, where activity is measured by the ED50 value (the dose in mg/kg. required to cure 50% of the test animals). In a separate test, the results of which are also summarized in Table 13, activity is indicated by the lowest dose at which a significant anti-fungal effect is observed. In this test, groups of male albino mice (specific pathogen free), weighing 18 to 20 grams, are infected intravenously with Candida albicans A-26. The animals are X-irradiated 24 hours prior to infection at about 50 roentgens per minute for 8 minutes (400 total dose) to reduce immune responses to the infecting organism. At 0, 4, and 24 hours post infection each group of mice is given graded doses subcutaneously of the test compound as a suspension in 33% polyethylene glycol (PEG)-water. The day of death for each animal is recorded.
(§2) *Dosage Schedules: A. = 40, 20, 15 and 10 mg/kg; Dosages given 0, 4, and
(§3) 24 hours post injection as suspension of test compound in 30% PEGH2
(§4) O. Number of mice receiving test compounds at each dosage level: 6 mice
(§5) per group. Number of mice in control (untreated) group: 10 mice per group
**As measured by increase in survival time of treated animals versus
control, calculated by method of Reed v Mueuch, American J. Hygiene, 27,

Candida albicans A-26 [2] = assay: Therapeutic activity against Candida albicans A-26 infection in X-irradiated mice, lowest active dose; format: in vivo; details: A26, light or radiation study, sc
Protocol: as §1, §2, §3, §4, §5

in vivo = details: mouse, po, 416 mg/kg
[3] = X-irradiated mice, subcutaneous at 0, 4 and 24 hours post infection, survival, read-out: Lowest Active Dose
[4] = read-out: Lowest Active Dose, X-irradiated mice, subcutaneous at 0, 4 and 24 hours post infection, survival

Structure (SMILES)	ED50 (Candida albicans A-26 [1]) [mg/kg]	minimal effective dose (Candida albicans A-26 [2]; [3]) [mg/kg]	minimal effective dose (Candida albicans A-26 [2]; [4]) [mg/kg]	Cmax (in vivo) [ng/mL]
CCCCCCCCCCCCCCSc1ccc(C(=O)N[C@H]2C[C@@H](O)[C@@H](O)NC(=O)[C@@H]3[C@@H](O)[C@@H](C)CN3C(=O)[C@H]([C@@H](C)O)NC(=O)[C@H]([C@H](O)[C@@H](O)c3ccc(O)cc3)NC(=O)[C@@H]3C[C@@H](O)CN3C(=O)[C@H]([C@@H](C)O)NC2=O)cc1 [drawing 158] (X3-[Orn(4R-OH,5R-OH)]T[Hyp][hTyr(3S-OH,4S-OH)]T[Pro(3S-OH,4S-Me)]; lactam 1-C)	20	2.5	–	–
CCCCCCCCCCCCS(=O)(=O)c1ccc(C(=O)N[C@H]2C[C@@H](O)[C@@H](O)NC(=O)[C@@H]3[C@@H](O)[C@@H](C)CN3C(=O)[C@H]([C@@H](C)O)NC(=O)[C@H]([C@H](O)[C@@H](O)c3ccc(O)cc3)NC(=O)[C@@H]3C[C@@H](O)CN3C(=O)[C@H]([C@@H](C)O)NC2=O)cc1 [drawing 161] (X5-[Orn(4R-OH,5R-OH)]T[Hyp][hTyr(3S-OH,4S-OH)]T[Pro(3S-OH,4S-Me)]; lactam 1-C)	53	20	–	–
CCCCCCCCCCCCCCS(=O)(=O)c1ccc(C(=O)N[C@H]2C[C@@H](O)[C@@H](O)NC(=O)[C@@H]3[C@@H](O)[C@@H](C)CN3C(=O)[C@H]([C@@H](C)O)NC(=O)[C@H]([C@H](O)[C@@H](O)c3ccc(O)cc3)NC(=O)[C@@H]3C[C@@H](O)CN3C(=O)[C@H]([C@@H](C)O)NC2=O)cc1 [drawing 162] (X2-[Orn(4R-OH,5R-OH)]T[Hyp][hTyr(3S-OH,4S-OH)]T[Pro(3S-OH,4S-Me)]; lactam 1-C)	11	–	5	–
CCCCCCCCOc1cccc(C(=O)N[C@H]2C[C@@H](O)[C@@H](O)NC(=O)[C@@H]3[C@@H](O)[C@@H](C)CN3C(=O)[C@H]([C@@H](C)O)NC(=O)[C@H]([C@H](O)[C@@H](O)c3ccc(O)cc3)NC(=O)[C@@H]3C[C@@H](O)CN3C(=O)[C@H]([C@@H](C)O)NC2=O)c1 [drawing 163] (X13-[Orn(4R-OH,5R-OH)]T[Hyp][hTyr(3S-OH,4S-OH)]T[Pro(3S-OH,4S-Me)]; lactam 1-C)	> 50	40	–	–
CCCCCCCCCCOc1cccc(C(=O)N[C@H]2C[C@@H](O)[C@@H](O)NC(=O)[C@@H]3[C@@H](O)[C@@H](C)CN3C(=O)[C@H]([C@@H](C)O)NC(=O)[C@H]([C@H](O)[C@@H](O)c3ccc(O)cc3)NC(=O)[C@@H]3C[C@@H](O)CN3C(=O)[C@H]([C@@H](C)O)NC2=O)c1 [drawing 164] (X9-[Orn(4R-OH,5R-OH)]T[Hyp][hTyr(3S-OH,4S-OH)]T[Pro(3S-OH,4S-Me)]; lactam 1-C)	> 50	> 40	–	–
CCCCCCCCCCCCOc1cccc(C(=O)N[C@H]2C[C@@H](O)[C@@H](O)NC(=O)[C@@H]3[C@@H](O)[C@@H](C)CN3C(=O)[C@H]([C@@H](C)O)NC(=O)[C@H]([C@H](O)[C@@H](O)c3ccc(O)cc3)NC(=O)[C@@H]3C[C@@H](O)CN3C(=O)[C@H]([C@@H](C)O)NC2=O)c1 [drawing 165] (X10-[Orn(4R-OH,5R-OH)]T[Hyp][hTyr(3S-OH,4S-OH)]T[Pro(3S-OH,4S-Me)]; lactam 1-C)	> 50	> 40	–	–
CCCCCCOc1ccc(C(=O)N[C@H]2C[C@@H](O)[C@@H](O)NC(=O)[C@@H]3[C@@H](O)[C@@H](C)CN3C(=O)[C@H]([C@@H](C)O)NC(=O)[C@H]([C@H](O)[C@@H](O)c3ccc(O)cc3)NC(=O)[C@@H]3C[C@@H](O)CN3C(=O)[C@H]([C@@H](C)O)NC2=O)cc1 [drawing 167] (X14-[Orn(4R-OH,5R-OH)]T[Hyp][hTyr(3S-OH,4S-OH)]T[Pro(3S-OH,4S-Me)]; lactam 1-C)	28	20	–	–
CCCCCCCCc1ccc(C(=O)N[C@H]2C[C@@H](O)[C@@H](O)NC(=O)[C@@H]3[C@@H](O)[C@@H](C)CN3C(=O)[C@H]([C@@H](C)O)NC(=O)[C@H]([C@H](O)[C@@H](O)c3ccc(O)cc3)NC(=O)[C@@H]3C[C@@H](O)CN3C(=O)[C@H]([C@@H](C)O)NC2=O)cc1 [drawing 169] ({Benzoyl(4-octyl)}-[Orn(4R-OH,5R-OH)]T[Hyp][hTyr(3S-OH,4S-OH)]T[Pro(3S-OH,4S-Me)]; lactam 1-C)	30	40	–	–
CCCCOc1ccc(CCC(=O)N[C@H]2C[C@@H](O)[C@@H](O)NC(=O)[C@@H]3[C@@H](O)[C@@H](C)CN3C(=O)[C@H]([C@@H](C)O)NC(=O)[C@H]([C@H](O)[C@@H](O)c3ccc(O)cc3)NC(=O)[C@@H]3C[C@@H](O)CN3C(=O)[C@H]([C@@H](C)O)NC2=O)cc1 [drawing 170] (X17-[Orn(4R-OH,5R-OH)]T[Hyp][hTyr(3S-OH,4S-OH)]T[Pro(3S-OH,4S-Me)]; lactam 1-C)	> 40	40	–	–
CCCCCCOc1ccc(CCC(=O)N[C@H]2C[C@@H](O)[C@@H](O)NC(=O)[C@@H]3[C@@H](O)[C@@H](C)CN3C(=O)[C@H]([C@@H](C)O)NC(=O)[C@H]([C@H](O)[C@@H](O)c3ccc(O)cc3)NC(=O)[C@@H]3C[C@@H](O)CN3C(=O)[C@H]([C@@H](C)O)NC2=O)cc1 [drawing 171] (X12-[Orn(4R-OH,5R-OH)]T[Hyp][hTyr(3S-OH,4S-OH)]T[Pro(3S-OH,4S-Me)]; lactam 1-C)	9.2	–	5	–
CCCCCCOc1ccc(C=CC(=O)N[C@H]2C[C@@H](O)[C@@H](O)NC(=O)[C@@H]3[C@@H](O)[C@@H](C)CN3C(=O)[C@H]([C@@H](C)O)NC(=O)[C@H]([C@H](O)[C@@H](O)c3ccc(O)cc3)NC(=O)[C@@H]3C[C@@H](O)CN3C(=O)[C@H]([C@@H](C)O)NC2=O)cc1 [drawing 175] (X19-[Orn(4R-OH,5R-OH)]T[Hyp][hTyr(3S-OH,4S-OH)]T[Pro(3S-OH,4S-Me)]; lactam 1-C)	21.8	–	5	–
CCCCCCCCOc1ccc(C=CC(=O)N[C@H]2C[C@@H](O)[C@@H](O)NC(=O)[C@@H]3[C@@H](O)[C@@H](C)CN3C(=O)[C@H]([C@@H](C)O)NC(=O)[C@H]([C@H](O)[C@@H](O)c3ccc(O)cc3)NC(=O)[C@@H]3C[C@@H](O)CN3C(=O)[C@H]([C@@H](C)O)NC2=O)cc1 [drawing 176] (X16-[Orn(4R-OH,5R-OH)]T[Hyp][hTyr(3S-OH,4S-OH)]T[Pro(3S-OH,4S-Me)]; lactam 1-C)	3.75	–	5	–
CCCCCCCCOc1cccc(CC(=O)N[C@H]2C[C@@H](O)[C@@H](O)NC(=O)[C@@H]3[C@@H](O)[C@@H](C)CN3C(=O)[C@H]([C@@H](C)O)NC(=O)[C@H]([C@H](O)[C@@H](O)c3ccc(O)cc3)NC(=O)[C@@H]3C[C@@H](O)CN3C(=O)[C@H]([C@@H](C)O)NC2=O)c1 [drawing 177] (X15-[Orn(4R-OH,5R-OH)]T[Hyp][hTyr(3S-OH,4S-OH)]T[Pro(3S-OH,4S-Me)]; lactam 1-C)	> 40	–	10	–
CCCCCCCCCCCCOc1ccc(CC(=O)N[C@H]2C[C@@H](O)[C@@H](O)NC(=O)[C@@H]3[C@@H](O)[C@@H](C)CN3C(=O)[C@H]([C@@H](C)O)NC(=O)[C@H]([C@H](O)[C@@H](O)c3ccc(O)cc3)NC(=O)[C@@H]3C[C@@H](O)CN3C(=O)[C@H]([C@@H](C)O)NC2=O)cc1 [drawing 178] (X18-[Orn(4R-OH,5R-OH)]T[Hyp][hTyr(3S-OH,4S-OH)]T[Pro(3S-OH,4S-Me)]; lactam 1-C)	8.4	–	10	–
CCCCCCCCOc1ccc(OCC(=O)N[C@H]2C[C@@H](O)[C@@H](O)NC(=O)[C@@H]3[C@@H](O)[C@@H](C)CN3C(=O)[C@H]([C@@H](C)O)NC(=O)[C@H]([C@H](O)[C@@H](O)c3ccc(O)cc3)NC(=O)[C@@H]3C[C@@H](O)CN3C(=O)[C@H]([C@@H](C)O)NC2=O)cc1 [drawing 179] (X11-[Orn(4R-OH,5R-OH)]T[Hyp][hTyr(3S-OH,4S-OH)]T[Pro(3S-OH,4S-Me)]; lactam 1-C)	16.8	–	10	–
CCCCCCCCCCOc1ccc(C(=O)N[C@H]2C[C@@H](O)[C@@H](O)NC(=O)[C@@H]3[C@@H](O)[C@@H](C)CN3C(=O)[C@H]([C@@H](C)O)NC(=O)[C@H]([C@H](O)[C@@H](O)c3ccc(O)cc3)NC(=O)[C@@H]3C[C@@H](O)CN3C(=O)[C@H]([C@@H](C)O)NC2=O)cc1 [drawing 182] ({Benzoyl(4-OC10H21)}-[Orn(4R-OH,5R-OH)]T[Hyp][hTyr(3S-OH,4S-OH)]T[Pro(3S-OH,4S-Me)]; lactam 1-C)	–	–	–	< 100
CCCCCCCCCCCCOc1ccc(C(=O)N[C@H]2C[C@@H](O)[C@@H](O)NC(=O)[C@@H]3[C@@H](O)[C@@H](C)CN3C(=O)[C@H]([C@@H](C)O)NC(=O)[C@H]([C@H](O)[C@@H](O)c3ccc(O)cc3)NC(=O)[C@@H]3C[C@@H](O)CN3C(=O)[C@H]([C@@H](C)O)NC2=O)cc1 [drawing 183] ({Benzoyl(4-dodecyloxy)}-[Orn(4R-OH,5R-OH)]T[Hyp][hTyr(3S-OH,4S-OH)]T[Pro(3S-OH,4S-Me)]; lactam 1-C)	–	–	–	5000
